PubChem BioAssay (NCI)
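Five concentrations, 48 hours, 96-well plates. The concentration for 50% growth inhibition is given as GI50. The concentration for full growth arrest is given as TGI.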

Experiments:
Assay in all cases: NCI anticancer screen, dose series, 48 h
EKVX NSCLC = tested on: EKVX NSCLC
HCT-116 colon = tested on: HCT-116 colon
HOP-92 NSCLC = tested on: HOP-92 NSCLC
OVCAR-4 ovarian = tested on: OVCAR-4 ovarian
RPMI-8226 leukemia = tested on: RPMI-8226 leukemia
RXF 393 renal = tested on: RXF 393 renal
SF-295 CNS = tested on: SF-295 CNS
UACC-62 melanoma = tested on: UACC-62 melanoma
UO-31 renal = tested on: UO-31 renal
SN12C renal = tested on: SN12C renal
LOX IMVI melanoma = tested on: LOX IMVI melanoma

Row | Compound | TGI (EKVX NSCLC) [µM] | TGI (HCT-116 colon) [µM] | TGI (HOP-92 NSCLC) [µM] | TGI (OVCAR-4 ovarian) [µM] | TGI (RPMI-8226 leukemia) [µM] | TGI (RXF 393 renal) [µM] | TGI (SF-295 CNS) [µM] | TGI (UACC-62 melanoma) [µM] | TGI (UO-31 renal) [µM] | TGI (SN12C renal) [µM] | TGI (LOX IMVI melanoma) [µM] | GI50 (HCT-116 colon) [µM] | GI50 (HOP-92 NSCLC) [µM] | GI50 (LOX IMVI melanoma) [µM] | GI50 (RPMI-8226 leukemia) [µM] | GI50 (RXF 393 renal) [µM] | GI50 (SF-295 CNS) [µM] | GI50 (SN12C renal) [µM] | GI50 (UACC-62 melanoma) [µM]
1 | COCN(CCC1=CCCCC1)C(=O)OC | > 100 | > 100 | > 100 | > 100 | > 100 | > 100 | > 100 | > 100 | > 100 |  |  |  |  |  |  |  |  |  | 
2 | Cc1ccc([N+](=O)[O-])cc1S(=O)(=O)Nc1ccc(C2=NNC(c3ccccc3)C2)cc1 (configuration not stated) | > 100 | 33.1 | > 100 | 54.4 | > 100 | 30.4 | 21.7 | 24.3 | 71.5 | 59.2 |  |  |  |  |  |  |  |  | 
3 | O=c1[nH]nc(-c2ccccc2)c2[nH]c3c4ccccc4ccc3c12 | > 100 | > 100 | > 100 |  | 3.57 | > 100 |  | > 100 |  | > 100 |  |  |  |  |  |  |  |  | 
4 | C=CC(CCc1ccc(C(=O)OCC)cc1)c1c(N)nc(N)[nH]c1=O (configuration not stated) |  | > 100 | 83.8 | > 100 | > 100 | > 100 | > 100 | > 100 | > 100 | > 100 | > 100 |  |  |  |  |  |  |  | 
5 | COC1=C(OC)C(=O)C(Cc2c(C)nc3sc(C)cn23)=C(C)C1=O | 35.1 | 49.9 |  | 23.1 | 39.2 | 42.4 | 43.7 | 27.4 | 31.6 | 31 | 39.4 |  |  |  |  |  |  |  | 
6 | O=Cc1ccc(OCc2cccc(COc3ccc(/C=N\Nc4ccc([N+](=O)[O-])cc4[N+](=O)[O-])cc3)n2)cc1 | > 100 | > 100 |  | > 100 | > 100 | > 100 | > 100 | > 100 | > 100 | > 100 | > 100 |  |  |  |  |  |  |  | 
7 | CSc1ncnc2c1ncn2C1CC(Oc2ccc(C)cc2)C(COc2ccc(C)cc2)O1 (configuration not stated) | > 100 | > 100 | > 100 | > 100 | > 100 |  | > 100 | > 100 |  | > 100 | > 100 |  |  |  |  |  |  |  | 
8 | NC(Cc1ccccc1)C(=O)N[C@H]1c2ccsc2/C(=N/O)[C@H]1O (some centres not stated) | > 100 | > 100 | > 100 | > 100 |  | > 100 | > 100 | > 100 | > 100 | > 100 | > 100 |  |  |  |  |  |  |  | 
9 | CNc1ccc(C(=O)CC(O)CCC(C)C2OC(=O)CC(O)CC(=O)CC(O)CC(O)CC(O)CC(O)CC3(O)CC(O)C(C(=O)OC)C(CC(O[C@@H]4O[C@H](C)[C@@H](O)[C@H](N)[C@@H]4O)/C=C/C=C/C=C/C=C/C=C/C=C/C=C/C2C)O3)cc1 (some centres not stated) |  | > 100 | > 100 |  | 54.5 | 4.46 | 9.67 | > 100 |  | 2.99 | > 100 | 3.46 | 3.27 | 3.3 | 3.57 | 1.72 | 2.63 | 1.46 | 2.49
10 | O=C1/C(=C/c2ccc([N+](=O)[O-])cc2)C(=O)N(c2ccccc2)C1c1ccccc1 (configuration not stated) | > 10 | > 10 |  | > 10 | > 10 | > 10 | > 10 | > 10 | > 10 | > 10 | > 10 |  |  |  |  |  |  |  | 
11 | Cc1ccc(SCC(CF)OC(C)n2cnc3c(=O)[nH]c(N)nc32)cc1 (configuration not stated) |  | > 100 | > 100 | > 100 | > 100 |  | > 100 | > 100 | > 100 | > 100 | > 100 |  |  |  |  |  |  |  | 
12 | Nc1nc(N)c2ncn(-c3ccc(Cl)cc3)c2n1 | > 100 | > 100 | > 100 | > 100 |  | 73.5 | > 100 | > 100 | > 100 | > 100 | > 100 |  |  |  |  |  |  |  | 
13 | O=C1CCC(c2ccc(Cl)cc2)=NN1c1nsc2ccccc12 | 88.5 | 51.2 | 71.2 | > 100 | 42.6 | 59.6 |  | > 100 | 59.1 | 67.3 |  |  |  |  |  |  |  |  | 
14 | COC(CNC(=O)C(C)NC(=O)CCc1ccccc1)OC (configuration not stated) | > 100 | > 100 | > 100 | > 100 | > 100 | > 100 | > 100 | > 100 | > 100 | > 100 |  |  |  |  |  |  |  |  | 
15 | CCOC(=O)c1cc(C(O)P2(=O)N(CC(C)(C)C)[C@@H]3CCCC[C@H]3N2CC(C)(C)C)cn1C(=O)OC(C)(C)C (some centres not stated) | 55.6 | 23.2 |  | 77.7 | 29.8 | 26.6 | 32 | 28.6 | 28.7 | 27.5 | 31.4 |  |  |  |  |  |  |  | 
16 | Cc1ccc(N=Nc2c(O)ccc3cc(S(=O)(=O)O)cc(S(=O)(=O)O)c23)cc1 | > 100 | > 100 | > 100 | > 100 |  | > 100 | > 100 | > 100 | > 100 | > 100 |  |  |  |  |  |  |  |  | 
17 | CC(C)=CCC/C(C)=C/C=C/C(C)=C/C=C/C(C)=C/C=C/C=C(C)/C=C/C=C(C)/C=C/[C@H]1C(C(C)(C)O)CC[C@]1(C)O (some centres not stated) | > 100 | 31.2 | 28.3 | > 100 | 54.5 | 45.4 | > 100 |  | 47 |  | 68.3 |  |  |  |  |  |  |  | 
18 | O=C1/C(=N/O)Cc2c(Br)ccc(Br)c21 | > 100 | > 100 | > 100 | > 100 | > 100 | > 100 | > 100 |  | > 100 |  | > 100 |  |  |  |  |  |  |  | 
19 | C[C@]12CCC(=O)O[C@H]1CCCCO2 | > 100 | > 100 | 71.1 |  |  | > 100 | > 100 | > 100 |  | > 100 | > 100 |  |  |  |  |  |  |  | 
20 | COc1cc(Cn2c3c(c4cc(O)ccc42)Cc2ccccc2C3=O)cc(OC)c1 |  | > 100 |  | > 100 | 26.5 | > 100 | 93.9 | > 100 | > 100 | 57.3 | > 100 |  |  |  |  |  |  |  | 
21 | Cc1ccc(-c2c(C#N)c(-c3ccc(Cl)cc3)c(C#N)c(=O)n2NS(=O)(=O)c2ccc(C)cc2)cc1 | > 100 | 50.6 | > 100 | > 100 |  | 65.7 | > 100 | 45 |  | > 100 | 58 |  |  |  |  |  |  |  | 
